Experimental data taken from US20090197906A1, “REVERSION OF MALIGNANT PHENOTYPE WITH 9-HYDROXY ELLIPTICINE DERIVATIVES” (priority 2006, published 2009).

Experiments:
[1] = system: actin in NIH 3T3 EF extract; assay: fluorescence anisotropy assay of actin dynamics in cell extract; format: biochemical; conditions: for k (rate constant of F-actin elongation) / Δ mA (anisotropy enhancement, steady state F-actin): malignant NIH 3T3 EF extract
Description: Actin dynamics is known to be impaired in tumor cells with a subsequent decrease of F-actin to G-actin ratio. Actin dynamics has been quantified in tumor cell extracts using the fluorescence anisotropy assay which gains access to rate constant of F-actin elongation (k) and steady state concentration of F-actin (Δ mA).
All reactions were carried out at 22° C. and fluorescence anisotropy signal was recovered at 520 nm with excitation at 490 nm in a Beacon 2000 (Panvera). Alexa 488 actin (Molecular Probes) was centrifuged at 35 000 rpm for 2 h at 4° C. to sediment residual actin polymers in a Beckman L5-50B ultracentrifuge. […] 80% of the supernatant was withdrawn; the concentration was defined through fluorescence measurements (excitation at 490 nm and signal recovering at 520 nm). The ultracentrifuged actin concentration was calculated using the non ultracentrifuged Alexa 488 actin as a standard. The supernatant was aliquoted, frozen in liquid nitrogen and stored at −80° C.
Before experiment, an aliquot of ultracentrifuged Alexa 488 actin was diluted to a concentration of […] in G buffer (5 mM Tris pH 8.1, 2 mM CaCl2, 0.2 mM DTT, 0.2 mM ATP). 3 μl of diluted Alexa 488 actin was mixed in 168 μl of G buffer and actin monomers anisotropy was measured before the addition of 4 μl of polymerisation buffer (2.5 M KCl, 50 mM MgCl2, 25 mM ATP), 5 μl of G buffer in the presence or in the absence of the chemical molecule and 20 μl cellular extract of normal NIH 3T3 cells or malignant NIH 3T3 EF cells at 2 mg/ml. The final concentration of Alexa 488 actin was 4 nM. The ratio of unlabelled to labelled actin was about 140/4 nM. Measurements were made each 10 sec for 200 sec. Actin monomers anisotropy value was subtracted, yielding the anisotropy enhancement (Δ mA). The data were fitted with the equation Y=Ymax. [1−exp(−K.X)]. The curves start at zero and ascend to Ymax that corresponds to the steady state anisotropy value (Δ mA eq), with a rate constant K. Y is anisotropy values of which monomers anisotropy is subtracted and X is the time.

B16BL6 melanoma cells = assay: wound healing assay (cell motility); format: cell-based; conditions: non cytotoxic concentration
Description: (§1) Wound healing assay was performed to evaluate the effect of BA016DD537 on motility of malignant NIH 3T3 EF cells and melanoma cell lines B16F10 and B16BL6. All the cells were incubated at 37° C. in a humidified 5% CO2 atmosphere. About 100 000-200 000 cells were seeded in a 6-well culture plate and BA016DD537, at the different concentrations, was added 24 hours later. Cells were grown for 3 days to confluence about 90-95% and small scratch-wounds (about 200 μm-1 mm width) were made with a pipette tip. Cell debris were removed, then the cultures were incubated in complete medium for 10 h in the presence of the same concentration of BA016DD537. Then, the cells were fixed for 10 min in PBS containing 3.7% formaldehyde at 4° C.

NIH 3T3 EF cells = assay: wound healing assay (cell motility); format: cell-based; conditions: 50 nM
Description: as §1

Melanoma B16 cells = assay: antitumor activity, i.p. grafted B16 melanoma, survival; format: in vivo, B6D2F1 mice
Description: Antitumor activity against B16 melanoma can be assessed in mice using i.p. graft of malignant cells followed by i.p. treatment. This type of protocol which by-pass various biodisponibility parameters gives information roughly on the maximal antitumor activity which can be expected for a given tumor.
Melanoma B16 cells (4×10^5) were injected in B6D2F1 mice using i.p. route at J0. Drugs, dissolved in sterile distilled water (0.5 ml) were injected daily using as well i.p. route from J1 to J9 at various concentrations. Control mice received distilled water only according the same protocol.
Treated and control mice were counted daily. TIC (mean survival of treated mice/mean survival of control mice) was calculated at J9.

[2] = system: B16BL6 melanoma cell line; assay: MTT cell viability, combination with retinoids; format: cell-based
Description: The ex vivo cell viability inhibition by BA016DD537 in the presence of the retinoids 13CRA and ATRA was tested against B16BL6 melanoma cell line using the 3-(4,5 dimethylthiazol-2-yl)-2,5-diphenyl-2H-tetrazolium bromide (MTT) calorimetric assay.
(§2) About 1000 cells were seeded in a 96-well culture plate 24 hours before adding increasing concentrations of BA016DD537, from 1 pM to 100 pM, in the absence or in the presence of 10 nM of retinoids. The plate was incubated at 37° C. for 3 days. 10 μl MTT stock solution (5 mg/ml in phosphate buffer saline) was added to 90 μl of complete medium in each well, the incubation was continued for 3 h at 37° C. 100 μl of lysis buffer (20% sodium dodecyl sulfate, 10 mM HCl, 1×PBS) was added to each well, and the plate was incubated overnight. The absorbance was determined using an Integrated EIA Management System (Labsystem) at a wavelength of 570 nm.

NCI-H187 = assay: MTT cell proliferation assay; format: cell-based, human; conditions: NCI-H187, viability 72 h
Description: (§3) Growth studies were performed using the [3-(4,5 dimethylthiazol-2-yl)-2,5-diphenyl-2H-tetrazolium bromide] (Sigma) calorimetric assay.
as §2, with “1500 to 5000 cells, according to the cell line,” for “1000 cells”, “BA016DD537” for “BA016DD537, from 1 pM to 100 pM, in the absence”, “BA016FZ539.” for “in the presence of 10 nM of retinoids.”, “(10%” for “(20%”, “1% HCl 1N; pH 4.7)” for “10 mM HCl, 1×PBS)”, “nm. The proliferation rates were calculated from the OD readings using the untreated cells as 100%.” for “nm.”
(§4) The SRB protein stain assay was compared with the tetrazolium (MTT) colorimetric assay for in vitro chemosensitivity testing of various human small cell lung cancer cell lines.

NCI-H446 = assay: MTT cell proliferation assay; format: cell-based, human; conditions: NCI-H446, viability 72 h, mean +/− SEM
Description: as §3
as §2, with “1500 to 5000 cells, according to the cell line,” for “1000 cells”, “BA016DD537” for “BA016DD537, from 1 pM to 100 pM, in the absence”, “BA016FZ539.” for “in the presence of 10 nM of retinoids.”, “(10%” for “(20%”, “1% HCl 1N; pH 4.7)” for “10 mM HCl, 1×PBS)”, “nm. The proliferation rates were calculated from the OD readings using the untreated cells as 100%.” for “nm.”
as §4

NCI-H510 = assay: MTT cell proliferation assay; format: cell-based, human; conditions: NCI-H510, viability 72 h
Description: as §3
as §2, with “1500 to 5000 cells, according to the cell line,” for “1000 cells”, “BA016DD537” for “BA016DD537, from 1 pM to 100 pM, in the absence”, “BA016FZ539.” for “in the presence of 10 nM of retinoids.”, “(10%” for “(20%”, “1% HCl 1N; pH 4.7)” for “10 mM HCl, 1×PBS)”, “nm. The proliferation rates were calculated from the OD readings using the untreated cells as 100%.” for “nm.”
as §4

Row | Structure (SMILES) | effect on actin-F elongation rate constant and actin-F steady state value ([1]; NIH 3T3 EF cytosolic fractions) | k (rate constant of F-actin elongation) ([1]; compound at 100 nM) | Δ mA (anisotropy enhancement, steady state F-actin) ([1]; compound at 100 nM) | k (rate constant of F-actin elongation) ([1]; compound at 200 nM) | Δ mA (anisotropy enhancement, steady state F-actin) ([1]; compound at 200 nM) | inhibition of cell motility (B16BL6 melanoma cells) | inhibition of cell migration (NIH 3T3 EF cells) | T/C (%) (mean survival of treated mice/mean survival of control mice) (Melanoma B16 cells; 0.39 mg/kg/inj. i.p. daily J1 to J9) | T/C (%) (mean survival of treated mice/mean survival of control mice) (Melanoma B16 cells; 0.78 mg/kg/inj. i.p. daily J1 to J9) | T/C (%) (mean survival of treated mice/mean survival of control mice) (Melanoma B16 cells; 1.56 mg/kg/inj. i.p. daily J1 to J9) | T/C (%) (mean survival of treated mice/mean survival of control mice) (Melanoma B16 cells; 3.12 mg/kg/inj. i.p. daily J1 to J9) | T/C (%) (mean survival of treated mice/mean survival of control mice) (Melanoma B16 cells; 6.25 mg/kg/inj. i.p. daily J1 to J9) | T/C (%) (mean survival of treated mice/mean survival of control mice) (Melanoma B16 cells; 7.5 mg/kg/inj. i.p. daily J1 to J9) | T/C (%) (mean survival of treated mice/mean survival of control mice) (Melanoma B16 cells; 10 mg/kg/inj. i.p. daily J1 to J9) | antitumor activity against B16 melanoma (T/C>125% = significant) (Melanoma B16 cells; i.p. graft, i.p. treatment) | decrease of dose when used in combination with retinoids for the same results ([2]; 100 nM alone vs 1 pM in the presence of ATRA 10 nM) | tumoral cell viability inhibition (MTT) ([2]; lower doses in the presence of 10 nM retinoids (13CRA, ATRA)) | IC50 (NCI-H187) | IC50 (NCI-H446) | IC50 (NCI-H510)
1 | Cc1c2cc[n+](CCN3CCCCC3)cc2c(C)c2c1[nH]c1ccc(O)cc12.[Cl-] [BA016DD537, 2-(β-piperidinoethyl)-9-hydroxyellipticinium chloride] | increases the actin-F elongation rate constant and the actin-F steady state value | 0.1636 s⁻¹ | 52.38 | 0.1737 s⁻¹ | 61.17 | inhibition of the B16BL6 cells motility | complete inhibition | 133% | 149% | 168% | 217% | 196% | 210% | 87% | marked antitumor activity | 100 000 fold | increased tumoral cell viability inhibition |  |  | 
2 | CS(=O)(=O)[O-].Cc1c2cc[n+](CCN3CCCCC3)cc2c(C)c2c1[nH]c1ccc(O)cc12 [BA016FZ539, 2-(betapiperidino-2-ethyl)-9-hydroxyellipticinium methanesulfonate] |  |  |  |  |  |  |  |  |  |  |  |  |  |  |  |  |  | 7.9 µM | 9.8 µM | 14.8 µM
